A short description of assay [1]: Inhibition of Escherichia coli UPPS.
The nature of assay [2]: Inhibition of Sulfolobus solfataricus HPPS. Also on record: species or system Saccharolobus solfataricus.
A short description of assay [3]: Inhibition of Escherichia coli OPPS.

Values joined by “and” are separate entries in the source; they are usually repeats but may differ in a detail not shown here. Equal values may be shown once.

The IC50 is the concentration needed to halve the response being measured. A low value points to higher potency. For the compound `O=P(O)(O)C(O)(c1cccc(-c2cccc(-c3ccccc3)c2)c1)P(=O)(O)O`, it took 1.8 µM to reach half-maximal inhibition in assay [1] (IC50).

For `O=P(O)(O)C(O)(Cc1ccccc1)P(=O)(O)O`, in assay [1], the IC50 amounted to 200 µM.

Consider `O=P([O-])(O)C(C[n+]1cccc(-c2cccc3c2oc2ccccc23)c1)P(=O)(O)O` (configuration not stated), for which the IC50 in assay [1] was 34 µM.

Consider `O=P([O-])(O)C(O)(C[n+]1cccc(-c2ccccc2)c1)P(=O)(O)O` (configuration not stated), for which the IC50 in assay [1] came out at 48 µM.

Turning to `O=P(O)(O)C(O)(Cc1cccc(-c2ccc(-c3ccccc3)cc2)c1)P(=O)(O)O`, the figures for the IC50 in assay [2] and in assay [3] were 2.7 µM and 870 µM, respectively.

`O=P([O-])(O)C(C[n+]1cccc(-c2ccc(-c3ccccc3)cc2)c1)P(=O)(O)O` (configuration not stated) came in with an IC50 in assay [1] of 35 µM.

As to `O=P([O-])(O)C(O)(C[n+]1cccc(F)c1)P(=O)(O)O` (configuration not stated), the IC50 in assay [1] is 490 µM.

For `O=P(O)(O)C(O)(Cc1cnc2ccccn12)P(=O)(O)O` [MINODRONIC ACID], the IC50 in assay [2] came out at 0.05 µM; in assay [3], 2.1 µM.

Regarding `O=P(O)(O)C(O)(Cc1cccc(-c2cccc3c2oc2ccccc23)c1)P(=O)(O)O`, the IC50 came out at 1.2 µM in assay [2] and 32 µM in assay [3].

Consider `O=P(O)(O)C(O)(Cn1ccnc1)P(=O)(O)O` [ZOLEDRONIC ACID], for which the IC50 in assay [2] was found to be 0.09 µM; in assay [3], 0.038 µM.

As to `O=P(O)(O)C(O)(CCc1cccc(-c2ccc(-c3ccccc3)cc2)c1)P(=O)(O)O`, the concentration for half-maximal inhibition (IC50) in assay [1] stood at 10 µM.

In the case of `O=P([O-])(O)C(C[n+]1cccc(-c2ccccc2-c2ccccc2)c1)P(=O)(O)O` (configuration not stated), half-maximal inhibition in assay [1] (IC50) required 120 µM.

As for `O=P(O)(O)C(O)(Cc1cccnc1)P(=O)(O)O` [RISEDRONIC ACID], the results for the IC50 in assay [1], in assay [2] and in assay [3] were 660 µM, 0.09 µM and 0.038 µM, respectively.

Compound `O=P(O)(O)C(O)(CCc1cccc(-c2cccc(-c3ccccc3)c2)c1)P(=O)(O)O` registered an IC50 in assay [1] of 5.5 µM.

For `O=P([O-])(O)C(C[n+]1cccc(-c2cccc(-c3ccccc3)c2)c1)P(=O)(O)O` (configuration not stated), the IC50 in assay [1] was 68 µM and 21 µM.

In assay [1], `O=P(O)(O)C(O)(Cc1cccc(-c2ccccc2)c1)P(=O)(O)O` gave an IC50 of 6.8 µM.

`CC(C)=CCC/C(C)=C/Cc1ccc[n+](CC(P(=O)([O-])O)P(=O)(O)O)c1` (configuration not stated) returned a concentration for half-maximal inhibition (IC50) in assay [1] of 89 µM.

In turn, `O=P(O)(O)C(O)(Cc1ccc(-c2cccc(-c3ccccc3)c2)cc1)P(=O)(O)O` came in with an IC50 in assay [1] of 1 µM.

As to `O=P(O)(O)C(O)(Cc1ccc(-c2ccc(-c3ccccc3)cc2)cc1)P(=O)(O)O`, the IC50 in assay [1] came out at 2 µM.

In the case of `O=P(O)(O)C(O)(Cc1cccc(-c2cccc(NS(=O)(=O)c3ccc4ccccc4c3)c2)c1)P(=O)(O)O`, the IC50 in assay [2] came to 0.42 µM; in assay [3], 5.4 µM.

`O=P([O-])(O)C(C[n+]1ccc(-c2ccc(-c3ccccc3)cc2)cc1)P(=O)(O)O` (configuration not stated): half-maximal inhibition in assay [1] (IC50) required 28 µM.

Regarding `O=P(O)(O)C(O)(Cc1cccc(-c2cccc(-c3ccccc3)c2)c1)P(=O)(O)O`, the IC50 in assay [2] was found to be 0.46 µM; in assay [3] it was 0.43 µM.

With `O=P(O)(O)C(O)(CCc1cccc(-c2ccccc2-c2ccccc2)c1)P(=O)(O)O`, it took 3.1 µM to reach half-maximal inhibition in assay [1] (IC50).

`O=P(O)(O)C1(P(=O)(O)O)CC(c2ccc(Cl)c(Cl)c2)=NO1` yielded an IC50 in assay [1] of 87 µM.

In assay [1], `O=P(O)(O)C(O)(CCc1ccc(-c2cccc3c2oc2ccccc23)cc1)P(=O)(O)O` came in with an IC50 of 12 µM.

On to `O=P(O)(O)C(CCCc1ccc(-c2ccccc2)cc1)P(=O)(O)O`, for which, in assay [1], inhibition was half-maximal at 69 µM (IC50).

In assay [1], `O=P([O-])(O)C(O)(C[n+]1ccc(-c2cccc3c2oc2ccccc23)cc1)P(=O)(O)O` (configuration not stated) displayed an IC50 of 13 µM.

As for `O=P(O)(O)C(O)(COc1cccc(-c2cccc(-c3ccccc3)c2)c1)P(=O)(O)O`, the results for the IC50 in assay [2] and in assay [3] were 360 µM and 0.075 µM, respectively.

Source of the values: ChEMBL document CHEMBL1145505, “Bisphosphonates target multiple sites in both cis- and trans-prenyltransferases” (Proc Natl Acad Sci U S A, 2007).
